Columns and labels:
[1] = Phase-2 double-blind, randomized, placebo-controlled study in acute rhinosinusitis; format: in vivo, human; conditions: Amoxicillin 500 mg three times a day
Protocol: A Phase-2, dose-ranging, double-blind, double-dummy, randomized, multi-center, multi-national study with 4 parallel groups was carried out. There were three treatment regimens: Mometasone Furoate Nasal Spray 200 μg was administered once a day; Mometasone Furoate Nasal Spray 200 μg also was administered twice a day; Amoxicillin 500 mg was administered three times a day. All three were administered against placebo. The regimens were administered to subjects 12 years of age or older with acute rhinosinusitis that was clinically diagnosed with symptoms present for 7 days or more and 28 days or less. Subjects with a major symptom score (sum of symptoms—facial pain, rhinorrhea, post nasal drip, sinus headache, nasal congestion—each scored 0—none-to 3—severe) greater than or equal to 5 and less than or equal to 12 at baseline with less than or equal to 3 symptoms scored severe were included. Subjects with a bacterial rhinosinusitis suspected on the presence of fever greater than or equal to 101° F./38.3° C., persistent severe unilateral facial pain/tooth pain, orbital or peri-orbital facial swelling, dental involvement; and/or worsening symptoms after initial improvement were excluded from the study. The primary efficacy variable of the study was the actual major symptom score (averaged daily for AM and PM assessments over 15 days of treatment). […]

[2] = Systemic effect of intranasal mometasone furoate (HPLC metabolite profiling of plasma radioactivity, first-pass metabolism, cortisol secretion); format: in vivo; conditions: administered intranasally

| Structure (SMILES) | major symptom score, efficacy vs. placebo ([1]; p=0.275) | recurrence rate ([1]; follow-up phase (14 days), MFNS 200 μg twice a day) | first-pass metabolism in the liver [2] | reduction in cortisol secretion levels [2] |
| --- | --- | --- | --- | --- |
| CC1(C)S[C@@H]2[C@H](NC(=O)[C@H](N)c3ccc(O)cc3)C(=O)N2[C@H]1C(=O)O [Amoxicillin] | not different from placebo | 8% | – | – |
| C[C@@H]1C[C@H]2[C@@H]3CCC4=CC(=O)C=C[C@]4(C)[C@@]3(Cl)[C@@H](O)C[C@]2(C)[C@@]1(OC(=O)c1ccco1)C(=O)CCl [mometasone furoate, Mometasone furoate] | – | – | > 98% | minimal reduction |
